Laboratory results published in the supplement of paper PMC10307832.

Key:
Experiment in all cases: relative viability (nuclei count vs DMSO), 5 days (fraction); higher = more cells survive
NCI-H1563 = system: NCI-H1563
How it was run: (§1)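 Medians of duplicate plates are given as relative viability. That measure is the nuclei count in treated wells divided by the count in vehicle wells. Counts were taken on 4× images of lung cancer cell lines in 1536-well plates, 5 days after pin-tool dosing the day after seeding with one drug alone or a fixed anchor-drug dose plus five library-drug doses (not always all listed) in √10 steps.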

PC-3 [JPC-3] = system: PC-3 [JPC-3]
How it was run: as §1

EKVX = system: EKVX
How it was run: as §1

NCI-H1975 = system: NCI-H1975
How it was run: as §1

LCLC-97TM1 = system: LCLC-97TM1
How it was run: as §1

NCI-H661 = system: NCI-H661
How it was run: as §1

PC-14 = system: PC-14
How it was run: as §1

RERF-LC-KJ = system: RERF-LC-KJ
How it was run: as §1

NCI-H1355 = system: NCI-H1355
How it was run: as §1

NCI-H2342 = system: NCI-H2342
How it was run: as §1

NCI-H2228 = system: NCI-H2228
How it was run: as §1

NCI-H1650 = system: NCI-H1650
How it was run: as §1

H3255 = system: H3255
How it was run: as §1

HCC-15 = system: HCC-15
How it was run: as §1

LK-2 = system: LK-2
How it was run: as §1

NCI-H322M = system: NCI-H322M
How it was run: as §1

NCI-H520 = system: NCI-H520
How it was run: as §1

NCI-H1755 = system: NCI-H1755
How it was run: as §1

CAL-12T = system: CAL-12T
How it was run: as §1

HCC-827 = system: HCC-827
How it was run: as §1

NCI-H2405 = system: NCI-H2405
How it was run: as §1

NCI-H1734 = system: NCI-H1734
How it was run: as §1

CCN(CC)CCCCNc1ncc2cc(-c3cc(OC)cc(OC)c3)c(NC(=O)NC(C)(C)C)nc2n1 + Nc1nc2[nH]cc(CCc3ccc(C(=O)N[C@@H](CCC(=O)O)C(=O)O)cc3)c2c(=O)[nH]1 [Pemetrexed] (partner 0.2 µM)
relative viability (NCI-H1563; first compound 0.01 µM): 0.72
relative viability (NCI-H1563; first compound 0.03162 µM): 0.601
relative viability (NCI-H1563; first compound 0.1 µM): 1.02
relative viability (NCI-H1563; first compound 0.3162 µM): 0.737
relative viability (NCI-H1563; first compound 1 µM): 0.633
relative viability (PC-3 [JPC-3]; first compound 0.03162 µM): 1
relative viability (PC-3 [JPC-3]; first compound 0.1 µM): 1.15
relative viability (PC-3 [JPC-3]; first compound 0.3162 µM): 1.7
relative viability (PC-3 [JPC-3]; first compound 1 µM): 0.883
relative viability (EKVX; first compound 0.03162 µM): 0.354
relative viability (EKVX; first compound 0.1 µM): 0.362
relative viability (EKVX; first compound 0.3162 µM): 0.475
relative viability (EKVX; first compound 1 µM): 0.379
relative viability (NCI-H1975; first compound 0.01 µM): 0.286
relative viability (NCI-H1975; first compound 0.03162 µM): 0.306
relative viability (NCI-H1975; first compound 0.1 µM): 0.318
relative viability (NCI-H1975; first compound 0.3162 µM): 0.331
relative viability (NCI-H1975; first compound 1 µM): 0.283
relative viability (LCLC-97TM1; first compound 0.01 µM): 0.174
relative viability (LCLC-97TM1; first compound 0.03162 µM): 0.185
relative viability (LCLC-97TM1; first compound 0.1 µM): 0.174
relative viability (LCLC-97TM1; first compound 0.3162 µM): 0.159
relative viability (LCLC-97TM1; first compound 1 µM): 0.189
relative viability (NCI-H661; first compound 0.01 µM): 0.968
relative viability (NCI-H661; first compound 0.03162 µM): 0.886
relative viability (NCI-H661; first compound 0.1 µM): 0.961
relative viability (NCI-H661; first compound 0.3162 µM): 0.986
relative viability (NCI-H661; first compound 1 µM): 0.95
relative viability (PC-14; first compound 0.01 µM): 0.123
relative viability (PC-14; first compound 0.03162 µM): 0.117
relative viability (PC-14; first compound 0.1 µM): 0.184
relative viability (PC-14; first compound 0.3162 µM): 0.139
relative viability (PC-14; first compound 1 µM): 0.141
relative viability (RERF-LC-KJ; first compound 0.01 µM): 0.497
relative viability (RERF-LC-KJ; first compound 0.03162 µM): 0.487
relative viability (RERF-LC-KJ; first compound 0.1 µM): 0.499
relative viability (RERF-LC-KJ; first compound 0.3162 µM): 0.428
relative viability (RERF-LC-KJ; first compound 1 µM): 0.514
relative viability (NCI-H1355; first compound 0.01 µM): 1.06
relative viability (NCI-H1355; first compound 0.03162 µM): 1.09
relative viability (NCI-H1355; first compound 0.1 µM): 1.17
relative viability (NCI-H1355; first compound 0.3162 µM): 1.11
relative viability (NCI-H1355; first compound 1 µM): 1.02
relative viability (NCI-H2342; first compound 0.01 µM): 0.762
relative viability (NCI-H2342; first compound 0.03162 µM): 0.777
relative viability (NCI-H2342; first compound 0.1 µM): 0.803
relative viability (NCI-H2342; first compound 0.3162 µM): 0.818
relative viability (NCI-H2342; first compound 1 µM): 0.755
relative viability (NCI-H2228; first compound 0.01 µM): 0.318
relative viability (NCI-H2228; first compound 0.03162 µM): 0.344
relative viability (NCI-H2228; first compound 0.1 µM): 0.418
relative viability (NCI-H2228; first compound 0.3162 µM): 0.326
relative viability (NCI-H2228; first compound 1 µM): 0.335
relative viability (NCI-H1650; first compound 0.01 µM): 0.398
relative viability (NCI-H1650; first compound 0.03162 µM): 0.377
relative viability (NCI-H1650; first compound 0.1 µM): 0.352
relative viability (NCI-H1650; first compound 0.3162 µM): 0.326
relative viability (NCI-H1650; first compound 1 µM): 0.344
relative viability (H3255; first compound 0.01 µM): 0.626
relative viability (H3255; first compound 0.03162 µM): 0.568
relative viability (H3255; first compound 0.1 µM): 0.615
relative viability (H3255; first compound 0.3162 µM): 0.632
relative viability (H3255; first compound 1 µM): 0.513
relative viability (HCC-15; first compound 0.01 µM): 0.21
relative viability (HCC-15; first compound 0.03162 µM): 0.237
relative viability (HCC-15; first compound 0.1 µM): 0.206
relative viability (HCC-15; first compound 0.3162 µM): 0.209
relative viability (HCC-15; first compound 1 µM): 0.207
relative viability (LK-2; first compound 0.01 µM): 0.267
relative viability (LK-2; first compound 0.03162 µM): 0.272
relative viability (LK-2; first compound 0.1 µM): 0.273
relative viability (LK-2; first compound 0.3162 µM): 0.149
relative viability (LK-2; first compound 1 µM): 0.145
relative viability (NCI-H322M; first compound 0.01 µM): 0.612
relative viability (NCI-H322M; first compound 0.03162 µM): 0.591
relative viability (NCI-H322M; first compound 0.1 µM): 0.735
relative viability (NCI-H322M; first compound 0.3162 µM): 0.642
relative viability (NCI-H322M; first compound 1 µM): 0.567
relative viability (NCI-H520; first compound 0.01 µM): 0.8
relative viability (NCI-H520; first compound 0.03162 µM): 0.694
relative viability (NCI-H520; first compound 0.1 µM): 0.555
relative viability (NCI-H520; first compound 0.3162 µM): 0.511
relative viability (NCI-H520; first compound 1 µM): 0.314
relative viability (NCI-H1755; first compound 0.01 µM): 0.413
relative viability (NCI-H1755; first compound 0.03162 µM): 0.572
relative viability (NCI-H1755; first compound 0.1 µM): 0.356
relative viability (NCI-H1755; first compound 0.3162 µM): 0.448
relative viability (NCI-H1755; first compound 1 µM): 0.435
relative viability (CAL-12T; first compound 0.01 µM): 1.4
relative viability (CAL-12T; first compound 0.03162 µM): 1.2
relative viability (CAL-12T; first compound 0.1 µM): 1.53
relative viability (CAL-12T; first compound 0.3162 µM): 1.44
relative viability (CAL-12T; first compound 1 µM): 1.1
relative viability (HCC-827; first compound 0.01 µM): 0.266
relative viability (HCC-827; first compound 0.03162 µM): 0.261
relative viability (HCC-827; first compound 0.1 µM): 0.265
relative viability (HCC-827; first compound 0.3162 µM): 0.269
relative viability (HCC-827; first compound 1 µM): 0.244
relative viability (NCI-H2405; first compound 0.01 µM): 0.994
relative viability (NCI-H2405; first compound 0.03162 µM): 1.06
relative viability (NCI-H2405; first compound 0.1 µM): 1.14
relative viability (NCI-H2405; first compound 0.3162 µM): 1.3
relative viability (NCI-H2405; first compound 1 µM): 1.04
relative viability (NCI-H1734; first compound 0.01 µM): 0.405
relative viability (NCI-H1734; first compound 0.03162 µM): 0.387
relative viability (NCI-H1734; first compound 0.1 µM): 0.418
relative viability (NCI-H1734; first compound 0.3162 µM): 0.409
relative viability (NCI-H1734; first compound 1 µM): 0.384
